These results are taken from article PMC12598851, “Exploiting Avidity Effects for the Discovery of Low Affinity Protein-Binding Fragments” (Journal of Medicinal Chemistry, 2025).

Data set [1] addresses T1, Rpn2-binding surface of Rpn13 (GST-Rpn13 PRU) (Homo sapiens, UniProt Q16186).
T1 construct: the human Rpn13 PRU (pleckstrin-like receptor for ubiquitin) domain is linked to the C-terminus of GST; His6 (C); made in house; host or cells: E. coli BL21 (DE3) codon plus RP
As to the kind of experiment: Competition assay with Rpn2 peptide for GST-Rpn13 PRU fusion protein. Conditions: protein preincubated with Rpn2 peptide 100 μM. The protocol:
As mentioned above, the Rpn13 PRU domain binds to the proteasome via association with a C-terminal peptide tail from Rpn2. […] The amount of protein retained on the resin was then evaluated using the same protocol described above.
This assay was conducted following the exact same procedure described above using two samples: GST-Rpn13 PRU (100 nM) alone, and GST-Rpn13 PRU (100 nM) that had been pretreated with Rpn2 peptide (100 μM) for 1 h at 4 °C. Each sample was added to separate wells of a microtiter plate.

For data set [2], the target named is T2, GST-Rpn13 PRU fusion protein (UniProt P08515+Q16186).
T2 construct: the human Rpn13 PRU (pleckstrin-like receptor for ubiquitin) domain is linked to the C-terminus of GST; His6 (C); made in house; host or cells: E. coli BL21 (DE3) codon plus RP
T2 sequence (P08515+Q16186 fused): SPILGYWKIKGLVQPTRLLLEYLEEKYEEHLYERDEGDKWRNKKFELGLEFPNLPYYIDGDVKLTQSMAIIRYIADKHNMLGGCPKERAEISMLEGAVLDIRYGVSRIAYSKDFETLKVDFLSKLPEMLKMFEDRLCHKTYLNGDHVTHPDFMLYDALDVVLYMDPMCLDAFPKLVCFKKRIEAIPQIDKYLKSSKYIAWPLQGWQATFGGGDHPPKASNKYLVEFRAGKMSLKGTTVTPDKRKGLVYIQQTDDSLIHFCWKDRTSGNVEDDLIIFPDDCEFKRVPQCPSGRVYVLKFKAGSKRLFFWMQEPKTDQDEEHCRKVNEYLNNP
As to the kind of experiment: Bead-displayed fragment screen against GST-Rpn13 PRU fusion protein. The format is binding, human. The conditions noted are these: GST-Rpn13 PRU 500 nM, A647 anti-FLAG antibody staining. As to the method:
The beads (one compound per well) were then incubated with GST-Rpn13 PRU fusion protein (500 nM) and, after washing, the amount of protein retained on the beads was measured after staining with Alexafluor-647 (A647)-labeled anti-FLAG antibody using a plate reader (Figure a). […] Next a competition experiment was performed in which the GST-Rpn13 PRU fusion protein was preincubated with excess glutathione (1 mM) to determine if the fragments, to some extent, engage the peptide-binding site of GST. […] We speculate that A8 and A88 probably bind to both GST and Rpn13, explaining the high signal in the original screen (Figure b). Finally, all five hit-displaying beads were incubated with only Alexa Fluor 647–labeled anti-FLAG antibody to confirm that the hits are not antibody binders (Figure S11).
General notes: • At each step, contents were mixed by pipetting up and down 3–5 times. • All steps following the addition of Alexa Fluor 647 anti-FLAG Tag Antibody were conducted in the dark. • Alexa Fluor 647 anti-FLAG Tag Antibody was purchased from commercial sources; (BioLengend cat #637316). […]
Each sample was transferred to a black 384-well plate in triplicate (3 × 20 μL per well). […] Fluorescence intensity was measured using a TECAN plate reader. Background fluorescence (from blank wells) was subtracted before further data analysis.

The target in the next data set is T3, Rpn13 PRU (Homo sapiens, UniProt Q16186).
T3 construct: FLAG (N); His10 (C); made in house; host or cells: E. coli BL21 (DE3) codon plus RP
T3 sequence (Q16186 18-131 limits assumed): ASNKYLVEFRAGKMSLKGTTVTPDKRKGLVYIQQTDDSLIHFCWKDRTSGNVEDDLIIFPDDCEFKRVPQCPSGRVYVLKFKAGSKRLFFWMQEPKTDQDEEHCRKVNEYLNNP
As to the kind of experiment: SPR, soluble compound binding to biotinylated Rpn13 PRU captured on SA chip. The protocol:
4000–5000 Ru of Biotinylated Rpn13-PRU (50 μg/mL in running buffer (20 mM phosphate buffer with 2.7 mM KCl, 137 mM NaCl, 0.05% Surfactant P20, 1 mM DTT and 1 mM EDTA)) was captured on a SA sensor chip (Cytiva). Testing compounds were evaluated using the multiple-cycle kinetic/affinity method in running buffer with indicated association and dissociation time, and a flow rate of 40 μL/min. Data was analyzed with the BIAcore Insight Evaluation Software and the binding affinities were obtained by fitting the sensor grams to the 1:1 binding kinetics, steady-state affinity models or steady-state affinity model with constant R max.
(In general: In SPR one partner is held on a chip, and binding of the other changes the refractive index at the surface.)

Data set [3] relates to monomeric streptavidin (mSA-647). The experiment in a line: Bead pull-down with monomeric streptavidin. The format is binding. Conditions: mSA-647 500 nM, 1 h, PBST, room temperature. As to the method:
To investigate this, compound 2-displaying, compound 3-displaying, or blank (acetylated) beads were incubated with tetrameric SA-647 or iFluor647-conjugated monomeric streptavidin (mSA-647). Biotin-displaying beads (Figure S3) were also included in this experiment as a high-affinity comparator. […] No binding of either protein to compound 3-displaying beads was observed.
3 Stable binding of tetrameric SA to beads displaying compound 2 is highly dependent on avidity. […] Each compound was represented by 1 million 10 μm TentaGel beads, with 250,000 beads used per technical replicate. (b) Effect of ligand functionalization density on compound binding. Beads were functionalized with compound 2, compound 3, or biotin at varying surface densities (100% to 5%) and incubated with SA-647 (500 nM) for 1 h in PBST at room temperature as previously, before recording the fluorescence intensity.
(§1) General notes: • At each step, contents were mixed by pipetting up and down 3–5 times. • All steps following the addition of SA-647 were conducted in the dark. • SA-647 and mSA-647 were purchased from commercial sources; (SA-647: ThermoFisher cat#S3235, mSA-647: Millipore SAE178).

The next data set concerns the target T4, SA-647 (Streptomyces avidinii, UniProt P22629).
T4 construct: purchased ThermoFisher S3235
As to the kind of experiment: Dose-dependent binding of SA-647 to bead-displayed ligands by FACS (MFI). The conditions noted are these: SA-647 0.1 to 1000 nM. The protocol: We next asked if the bead binding assay could distinguish complexes with different affinities for SA. 10 μm TentaGel beads displaying compound 2, compound 3, the oxazole analogue of compound 2 (Figure S4), or the SA-binding macrocycle 1 shown in Figure a were exposed to different concentrations of SA-647 ranging from 0.1 to 1000 nM. After washing, the intensity of fluorescence retained on the beads was measured using a flow cytometer, and the results were plotted as the mean fluorescence intensity (MFI) on the beads vs the protein concentration. […] Macrocycle 1, which binds SA with a K D of about 600 nM in solution (more than 1000 times more tightly than compound 2), binds SA-647 on resin at far lower concentrations than does compound 2.

Data set [4] concerns the target T5, tetrameric streptavidin (SA-647) (Streptomyces avidinii, UniProt P22629).
T5 construct: purchased ThermoFisher S3235
The experiment in a line: Bead pull-down: SA-647 retained by compound-displaying TentaGel beads, plate reader. The class given is binding. The conditions noted are these: SA-647 500 nM.
Description: Compounds 2 and 3 were then constructed on 10 μm TentaGel beads via straightforward solid-phase synthesis, along with acetylated beads, which as a “blank” (Figure c). TentaGel beads consist of an amino-polystyrene core onto which is grafted a thick layer of amine-terminated PEG chains. An additional mini-PEG spacer was incorporated prior to coupling the compounds to further improve spatial accessibility and aqueous display of the compounds (see Experimental Section for detailed synthesis). The beads were incubated with AlexaFluor 647-conjugated SA (SA-647) in phosphate-buffered saline supplemented with 0.05% Tween 20 (PBST) for 1 h at room temperature in the dark. Following incubation, the beads were washed thoroughly (see Experimental Section for a detailed protocol), then resuspended in PBST. The amount of fluorescent SA retained by the resin was analyzed using a Tecan multiwell plate reader equipped with appropriate excitation and emission filters (excitation at 650 nm, emission at 665 nm).
as §1
A 96-well Multiscreen hydrophilic assay plate (MilliporeSigma, MSBVN12) was activated by treating each well with 150 μL of 70% (v/v) ethanol in water. The solvent was removed under vacuum, and the wells were washed with PBST (3 × 150 μL). Fresh PBST (150 μL) was then added to each well.
The plate was drained and washed again with PBST (3 × 150 μL), followed by the addition of 150 μL PBST per well. Plates were shaken overnight at ambient temperature on an orbital plate shaker.
The next day, wells were drained and incubated with 150 μL of a 1:1 (v/v) solution of PBST:PBS blocking buffer (Thermo Scientific, 37538) for 1 h at room temperature. After removal of the blocking buffer, 100 μL PBST was added to each well and mixed thoroughly. A 20 μL aliquot from each well was transferred to a black 384-well flat-bottom plate (Corning, 3820) for background (blank) measurements.
The remaining PBST was removed, and the beads were incubated with SA-647 (500 nM in 1:1 PBST/blocking buffer, 150 μL per well) for 1 h at room temperature. After incubation, wells were washed with PBST while shaking (3 × 20 min). A final 150 μL PBST wash was performed and drained. Fresh PBST (80 μL) was added to each well, and the contents were transferred to labeled PCR tubes. Samples were briefly vortexed and mixed by pipetting.
Each sample was transferred to a black 384-well plate in triplicate (3 × 20 μL per well). The plate was sealed with a foil sticker and centrifuged at 250g for 1 min. Fluorescence intensity was measured using a TECAN plate reader. Background fluorescence (from blank wells) was subtracted prior to further data analysis.

The next data set has as its target T6, Streptavidin (SA) (Streptomyces avidinii, UniProt P22629).
T6 construct: purchased
As to the kind of experiment: SPR, soluble compound binding to immobilized streptavidin. The protocol: The SPR binding affinity testing was conducted using the BIAcore 1K system (Cytiva) with BIAcore Insight Control Software. Streptavidin (50 μg/mL in 10 mM pH 5.0 NaOAc) was immobilized on a CM5 sensor chip (Cytiva) via amide coupling, using HBS-EP+ (10 mM HEPES, 150 mM NaCl, 3 mM EDTA, and 0.05% v/v Surfactant P20) as the immobilization buffer. Approximately 1000 RU of immobilization was achieved. Testing compounds were evaluated using the multiple-cycle kinetic/affinity method in PBS-P+ running buffer (20 mM phosphate buffer, 2.7 mM KCl, 137 mM NaCl, and 0.05% Surfactant P20), with a 200 s association time, 200 s dissociation time, and a flow rate of 45 μL/min. Binding affinities for the testing compounds were determined by fitting the sensor grams to both the 1:1 binding kinetics and steady-state affinity models provided in the BIAcore Insight Evaluation Software.

For data set [5], the target named is T5, tetrameric streptavidin (SA-647). As to the kind of experiment: Bead pull-down: SA-647 retained by compound-displaying TentaGel beads, plate reader. The format is binding. Conditions: SA-647 (100 nM), plate reader.
[6] abbreviates: soluble mini-PEG attached compound, immobilized SA, read-out: KD (SPR).

Several values for one entry are separate records, joined by “and”; a condition that tells them apart may be missing. Equal entries are not always repeated. Entries after “also recorded” stand apart in the source; their conditions may differ. Where two headings read alike, the source gives them in different places. Bounds are passed on as bounds.

T5 sequence (P22629 37-163 limits assumed): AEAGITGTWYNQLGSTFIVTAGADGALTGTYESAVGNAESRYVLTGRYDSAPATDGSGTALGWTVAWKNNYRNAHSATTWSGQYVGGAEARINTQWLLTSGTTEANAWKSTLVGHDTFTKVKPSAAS
T6 sequence (P22629 25-183, species assumed): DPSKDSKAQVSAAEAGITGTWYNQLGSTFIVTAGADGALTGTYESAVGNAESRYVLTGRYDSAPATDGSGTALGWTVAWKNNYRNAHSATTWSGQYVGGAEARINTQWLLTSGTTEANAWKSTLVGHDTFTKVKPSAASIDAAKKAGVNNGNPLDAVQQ
T1 sequence (Q16186 18-131 limits assumed): as the sequence (Q16186 18-131 limits assumed) above
T4 sequence (P22629 37-163 limits assumed): as the sequence (P22629 37-163 limits assumed) above

Take `NC(=O)CNC(=O)COCCOCCNC(=O)CNC(=O)c1ccc2nc(-c3ccncc3)[nH]c2c1` [A63]: the “effect of soluble Rpn2 peptide competitor on binding of GST-Rpn13 PRU” value in data set [1] is on record as “strongly suppressed binding”. The “fluorescence intensity in GST-Rpn13 PRU screen” value in data set [2] is on record as “above-background fluorescence”. The “KD (SPR)” value on Rpn13 PRU (soluble compound, biotinylated Rpn13 PRU immobilized on SA chip) is reported as “A similar result”. At Rpn13 PRU (supplementary CSV, solution dissociation constants, read-out: KD for Rpn13 PRU), the Kd (as a rule, a measure of binding affinity in units of concentration) was greater than 2000 µM.

`NC(=O)CNC(=O)COCCOCCNC(=O)CNC(=O)c1cnc2[nH]ccc2c1` [A85]: the “effect of soluble Rpn2 peptide competitor on binding of GST-Rpn13 PRU” value in data set [1] is reported as “strongly suppressed binding”. Also, the “fluorescence intensity in GST-Rpn13 PRU screen” value in data set [2] is recorded as “above-background fluorescence”. At Rpn13 PRU (soluble compound, biotinylated Rpn13 PRU immobilized on SA chip, read-out: KD (SPR)), the Kd is greater than 2000 µM.

As to `CC(=O)N(Cc1ccccc1)Cc1nc(C(=O)N(C)CC(=O)NCCOCCOCC(=O)NCC(N)=O)cs1` [Compound 3], the “binding of mSA-647 to bead-displayed ligand” value in data set [3] is reported as “No binding”. Further, the “dose-dependent binding of SA-647 (MFI by flow cytometer)” value on SA-647 was “not”. In addition, the “Fluorescence intensity, Average” value in data set [4] (12 replicates, after background subtraction, Z' calculation) is 177. Also, the “binding of SA-647 to bead-displayed compound (fluorescence)” value in data set [4] (1 h, PBST, room temperature, after washing) is on record as “failed to retain more labeled SA than the acetylated “blank” beads; also recorded: No binding”. The “Fluorescence intensity, individual replicate” value in data set [4] (replicates 1-12, after background subtraction, Z' calculation) was 76 and 119 and 260 and 226 and 50 and 156 and 122 and 81 and 136 and 180 and 145 and 568. Moreover, the “binding to SA by SPR (in words)” value at Streptavidin (SA) (soluble compound, immobilized SA) was “no detectable binding”.

With `CN(CC(=O)NCCOCCOCC(=O)NCC(N)=O)C(=O)c1csc(CN(Cc2cccnc2)C(=O)C2CCC(=O)C2)n1` (centres unmarked) [Compound 4], the “SA-647 retained by bead-displayed grown compound relative to parent compound 2” value in data set [5] is on record as “retained the most SA-647”. Also, the “improvement of KD over the parent compound 2” value at Streptavidin (SA) (SPR, immobilized SA) came to 7.8 fold. Besides, the Kd on Streptavidin (SA) (setting [6]) turned out to be 90 µM.

Take `CN(CC(=O)NCCOCCOCC(=O)NCC(N)=O)C(=O)c1csc(CN(Cc2cccnc2)C(=O)c2ccc(F)c(C#N)c2)n1` [Compound 5]: on Streptavidin (SA) (supplementary CSV, solution dissociation constants, read-out: KD for SA), the Kd is 160 µM.

As for `CN(CC(=O)NCCOCCOCC(=O)NCC(N)=O)C(=O)c1csc(CN(Cc2cccnc2)C(=O)c2ccc(F)c(F)c2)n1` [Compound 6], the “SA-647 retained by bead-displayed grown compound relative to parent compound 2” value in data set [5] was “captured less SA-647 than bead-displayed 4 but more than bead-displayed 2”. For the same compound, the Kd on Streptavidin (SA) (setting [6]) turned out to be 330 µM.

With `CN(CC(=O)NCCOCCOCC(=O)NCC(N)=O)C(=O)c1csc(CN(Cc2cccnc2)C(=O)c2ccc3[nH]ccc3c2)n1` [Compound 7], the “SA-647 retained by bead-displayed grown compound relative to parent compound 2” value in data set [5] is “retained less SA-647 than compound 2”. Also, on Streptavidin (SA) (setting [6]), the Kd stood at 780 µM.

For `O=C(O)CCCC[C@@H]1SC[C@@H]2NC(=O)N[C@@H]21` [biotin, reference compound], the “binding of mSA-647 to bead-displayed ligand” value in data set [3] is reported as “readily observable”. Also, the “dependence of SA-647 retention on ligand density” value in data set [4] (site functionalization 100% to 5%) is given as “insensitive to ligand density”.
